Legend:
MAT2A homodimer = target: T1, MAT2A homodimer (Homo sapiens, UniProt P31153); experiment: Biochemical assay: inhibition of recombinant MAT2A homodimer (phosphate release, PiColorLock Gold); conditions: MAT2A IC50 score; read-out: Enzyme Inhibition
T1 construct: inferred from Ni sepharose purification and imidazole elution; made in house; host or cells: Sf9 insect cells, recombinant baculovirus (Bac to Bac, pFASTBAC1 vector)
Outline: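 Baculovirus/Sf9-expressed, Ni-purified MAT2A at 4 μg/mL in pH 8.0 Tris/KCl/MgCl2/EDTA/BSA buffer, preincubated with compound 60 min at 25 °C. Started with ATP and L-methionine substrate mix (500 μM and 40 μM, stock in mix), 60 min at 25 °C; released phosphate by PiColorLock Gold against a phosphate standard curve.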

[1] = test system: SAM in HCT116 human colon carcinoma cell line with deleted MTAP gene; experiment: Cellular assay of target engagement (SAM): SAM level by LC-MS/MS after 72 hrs; format: cell-based; conditions: HCT-116, IC50 score, read-out: Cell 72 h SAM Inhibition (MTAP −/−)
Outline: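 MTAP-deleted HCT116 cells were seeded, then exposed 24 h later to a 10-point 3-fold compound dilution series for 72 h at 37 °C/5% CO2. They were lysed in cold 80% methanol/acetic acid containing d3-SAM internal standard. SAM was quantified by LC-MS/MS (MRM, m/z 399.2→250.1).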

HCT116 MTAP +/+ = experiment: Inhibition of cellular proliferation, 4 days, Cell Titer Glo, HCT116 MTAP+/+; format: cell-based; conditions: Homo sapiens, HCT-116, 96 h, IC50 score, read-out: 4 Day Relative Growth Inhibition (MTAP +/+)
Outline: (§1)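 Isogenic human colon carcinoma lines differing only in MTAP status, plated 24 h before dosing, then exposed for 4 days at 37 °C/5% CO2 to a 10-point 3-fold dilution series (0.2% DMSO final). Read-out is Cell Titer Glo ATP luminescence, blank-subtracted and normalised to in-plate DMSO control, plotted as % proliferation change versus log molar concentration.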

HCT116 MTAP-/- = experiment: Inhibition of cellular proliferation, 4 days, Cell Titer Glo, HCT116 MTAP-/-; format: cell-based; conditions: Homo sapiens, HCT-116, 96 h, IC50 score, read-out: 4 Day Relative Growth Inhibition (MTAP −/−)
Outline: as §1

T1 sequence (P31153 whole entry): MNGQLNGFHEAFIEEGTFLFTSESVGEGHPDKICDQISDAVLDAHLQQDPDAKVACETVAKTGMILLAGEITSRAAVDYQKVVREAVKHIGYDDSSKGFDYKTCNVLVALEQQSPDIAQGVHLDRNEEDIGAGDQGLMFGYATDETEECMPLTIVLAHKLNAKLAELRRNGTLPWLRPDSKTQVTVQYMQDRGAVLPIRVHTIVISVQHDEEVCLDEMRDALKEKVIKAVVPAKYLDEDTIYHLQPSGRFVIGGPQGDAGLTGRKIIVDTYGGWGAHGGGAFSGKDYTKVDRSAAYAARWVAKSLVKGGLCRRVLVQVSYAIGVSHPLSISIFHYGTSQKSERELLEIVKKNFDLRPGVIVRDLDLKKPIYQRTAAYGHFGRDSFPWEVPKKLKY

| Compound | IC50 (MAT2A homodimer) | IC50 [1] | IC50 (HCT116 MTAP +/+) | IC50 (HCT116 MTAP-/-) |
| --- | --- | --- | --- | --- |
| CCOc1ccc2cc(-c3ccc4nncn4c3)c(=O)n(-c3ccc(OC(F)(F)F)cc3)c2n1 [Example 219] | < 100 nM | < 100 nM | ≥ 1000 nM | 100 to 1000 nM |
| [2H]C([2H])([2H])Oc1ccc(-n2c(=O)c(-c3ccc4nncn4c3)cc3ccc(OCC(F)F)nc32)cc1 [Example 220] | < 100 nM | < 100 nM | ≥ 1000 nM | < 100 nM |
| [2H]C([2H])([2H])Oc1ccc(-n2c(=O)c(-c3ccc4nncn4c3)cc3ccc(OCC)nc32)cc1 [Example 221] | < 100 nM | < 100 nM | ≥ 1000 nM | < 100 nM |
| CCOc1ccc2nc(-c3ccc4nn(C)cc4c3)c(=O)n(-c3ccc(Cl)cc3)c2n1 [Example 222, 4-(4-chlorophenyl)-6-ethoxy-2-(2-methyl-2H-indazol-5-yl)pyrido[2,3-b]pyrazin-3(4H)-one] | < 100 nM | < 100 nM | ≥ 1000 nM | < 100 nM |
| CCOc1ccc2nc(-c3ccc(OC)cc3)c(=O)n(-c3ccc(OC(F)F)cc3)c2n1 [Example 223] | < 100 nM | 100 to 1000 nM | ≥ 1000 nM | 100 to 1000 nM |
| CCOc1ccc2nc(-c3ccc4nn(C)cc4c3)c(=O)n(-c3ccc(OC(F)F)cc3)c2n1 [Example 224] | < 100 nM | < 100 nM | 100 to 1000 nM | < 100 nM |
| Cn1cc2cc(-c3nc4ccc(NCC(F)(F)F)nc4n(-c4ccc(OC(F)F)cc4)c3=O)ccc2n1 [Example 225] | < 100 nM | < 100 nM | ≥ 1000 nM | < 100 nM |
| Cn1cc2cc(-c3nc4ccc(NCC(F)(F)F)nc4n(-c4ccc(Cl)cc4)c3=O)ccc2n1 [Example 226] | < 100 nM | < 100 nM | ≥ 1000 nM | < 100 nM |
| COc1ccc(-c2nc3ccc(NCC(F)(F)F)nc3n(-c3ccc(OC(F)F)cc3)c2=O)cc1 [Example 227] | < 100 nM | < 100 nM | ≥ 1000 nM | < 100 nM |
| Cn1cc2cc(-c3nc4ccc(OCC(F)F)nc4n(-c4ccc(OC(F)F)cc4)c3=O)ccc2n1 [Example 228] | < 100 nM | < 100 nM | ≥ 1000 nM | < 100 nM |
| CCOc1cnc2cc(-c3ccc4nn(C)cc4c3)c(=O)n(-c3ccc(Cl)cc3)c2n1 [Example 229, 5-(4-chlorophenyl)-3-ethoxy-7-(2-methyl-2H-indazol-5-yl)pyrido[2,3-b]pyrazin-6(5H)-one] | < 100 nM | < 100 nM | ≥ 1000 nM | < 100 nM |
| CCOc1cnc2cc(-c3ccc(OC)cc3)c(=O)n(-c3ccc(OC(F)F)cc3)c2n1 [Example 230] | < 100 nM | < 100 nM | 100 to 1000 nM | 100 to 1000 nM |
| CCOc1cnc2cc(-c3ccc4nn(C)cc4c3)c(=O)n(-c3ccc(OC(F)F)cc3)c2n1 [Example 231] | < 100 nM | < 100 nM | 100 to 1000 nM | < 100 nM |
| COc1ccc(-c2cc3cnc(NCC(F)(F)F)nc3n(-c3ccc(Br)cc3)c2=O)cc1 [Example 232, 8-(4-bromophenyl)-6-(4-methoxyphenyl)-2-(2,2,2-trifluoroethylamino)pyrido[2,3-d]pyrimidin-7(8H)-one] | < 100 nM | < 100 nM | ≥ 1000 nM | 100 to 1000 nM |
| COc1ccc(-c2cc3cnc(NCC(F)(F)F)nc3n(-c3ccc(-c4ccn[nH]4)cc3)c2=O)cc1 [Example 233, 8-(4-(1H-pyrazol-5-yl)phenyl)-6-(4-methoxyphenyl)-2-(2,2,2-trifluoroethylamino)pyrido[2,3-d]pyrimidin-7(8H)-one] | < 100 nM | < 100 nM | ≥ 1000 nM | < 100 nM |
| COc1ccc(-n2c(=O)c(-c3ccc(=O)[nH]c3)cc3cnc(NCC(F)(F)F)nc32)cc1 [Example 235, 8-(4-methoxyphenyl)-6-(6-oxo-1,6-dihydropyridin-3-yl)-2-(2,2,2-trifluoroethylamino)pyrido[2,3-d]pyrimidin-7(8H)-one] | < 100 nM | 100 to 1000 nM | ≥ 1000 nM | 100 to 1000 nM |
| CCCc1ccc2cc(-c3ccc4nn(C)cc4c3)c(=O)n(-c3ccc(Cl)cc3)c2n1 [Example 236, 1-(4-chlorophenyl)-3-(2-methyl-2H-indazol-5-yl)-7-propyl-1,8-naphthyridin-2(1H)-one] | < 100 nM | < 100 nM | ≥ 1000 nM | < 100 nM |
| COc1ccc(-c2cc3ncc(NCC(F)(F)F)nc3n(-c3ccc(OC(F)F)cc3)c2=O)cc1 [Example 237, 5-(4-(difluoromethoxy)phenyl)-7-(4-methoxyphenyl)-3-((2,2,2-trifluoroethyl)amino)pyrido[2,3-b]pyrazin-6(5H)-one] | < 100 nM | < 100 nM | ≥ 1000 nM | < 100 nM |
| [2H]C([2H])([2H])Oc1ccc(-n2c(=O)c(-c3ccc4nn(C)cc4c3)cc3ccc(OC([2H])([2H])C([2H])([2H])[2H])nc32)cc1 [Example 301] | < 100 nM | < 100 nM | 100 to 1000 nM | < 100 nM |
| [2H]C([2H])([2H])Oc1ccc(-n2c(=O)c(-c3ccc4nn(C)cc4c3)cc3ccc(OCCF)nc32)cc1 [Example 302] | < 100 nM | < 100 nM | 100 to 1000 nM | < 100 nM |
| [2H]C([2H])([2H])Oc1ccc(-n2c(=O)c(-c3ccc4nn(C([2H])([2H])[2H])cc4c3)cc3ccc(OC([2H])([2H])C([2H])([2H])[2H])nc32)cc1 [Example 303] | < 100 nM | < 100 nM | 100 to 1000 nM | < 100 nM |
| [2H]C([2H])([2H])Oc1ccc(-n2c(=O)c(-c3ccc4nn(C)cc4c3)cc3ccc(O[C@@H](C)C(F)(F)F)nc32)cc1 [Example 305] | < 100 nM | < 100 nM | ≥ 1000 nM | < 100 nM |
| CCNc1ccc2cc(-c3ccc4nn(C)cc4c3)c(=O)n(-c3ccc(C)nc3)c2n1 [Example 307] | < 100 nM | < 100 nM | ≥ 1000 nM | < 100 nM |
| CCNc1ccc2cc(-c3ccc4nn(C)cc4c3)c(=O)n(-c3ccc(C4CC4)nc3)c2n1 [Example 308] | < 100 nM | < 100 nM | ≥ 1000 nM | < 100 nM |
| CCNc1ccc2cc(-c3ccc4nn(C)cc4c3)c(=O)n(-c3ccc(OC(F)F)cc3)c2n1 [Example 309] | < 100 nM | < 100 nM | < 100 nM | < 100 nM |

Next, values leading:

| IC50 (MAT2A homodimer) | IC50 [1] | IC50 (HCT116 MTAP +/+) | IC50 (HCT116 MTAP-/-) | Compound |
| --- | --- | --- | --- | --- |
| < 100 nM | < 100 nM | 100 to 1000 nM | < 100 nM | CCNc1ccc2cc(-c3ccc4nn(C)cc4c3)c(=O)n(-c3ccc(Cl)cc3)c2n1 [Example 310] |
| < 100 nM | < 100 nM | ≥ 1000 nM | < 100 nM | COc1ccc(-n2c(=O)c(-c3ccc4nn(C)cc4c3)cc3ccc(OCC(F)(F)F)nc32)cc1 [Example 313] |
| < 100 nM | < 100 nM | ≥ 1000 nM | < 100 nM | Cn1cc2cc(-c3cc4ccc(OCC(F)(F)F)nc4n(-c4ccc(C5CC5)cc4)c3=O)ccc2n1 [Example 314] |
| < 100 nM | < 100 nM | ≥ 1000 nM | < 100 nM | [2H]C([2H])([2H])Oc1ccc(-n2c(=O)c(-c3ccc4nn(C)cc4c3)cc3ccc(OCC(F)(F)F)nc32)cc1 [Example 316] |
| < 100 nM | < 100 nM | 100 to 1000 nM | 100 to 1000 nM | CCOc1ccc2cc(-c3ccc4nn(C)cc4c3)c(=O)n(-c3ccc(Br)cc3)c2n1 [Example 317] |
| < 100 nM | < 100 nM | 100 to 1000 nM | < 100 nM | Cn1cc2cc(-c3cc4ccc(OCC(F)F)nc4n(-c4ccc(Br)cc4)c3=O)ccc2n1 [Example 318] |
| < 100 nM | < 100 nM | ≥ 1000 nM | < 100 nM | Cn1cc2cc(-c3cc4ccc(OCC(F)(F)F)nc4n(-c4ccc(Br)cc4)c3=O)ccc2n1 [Example 319] |
| < 100 nM | < 100 nM | 100 to 1000 nM | < 100 nM | Cn1cc2cc(-c3cc4ccc(OCC(F)(F)F)nc4n(-c4ccc(N)nc4)c3=O)ccc2n1 [Example 320] |
| < 100 nM | < 100 nM | ≥ 1000 nM | < 100 nM | Cn1cc2cc(-c3cc4ccc(OCC(F)F)nc4n(-c4ccc(OC(F)F)cc4)c3=O)ccc2n1 [Example 321] |
| < 100 nM | < 100 nM | ≥ 1000 nM | < 100 nM | [2H]C([2H])([2H])Oc1ccc(-n2c(=O)c(-c3ccc4nn(C)cc4c3)cc3ccc(OC(C)C)nc32)cc1 [Example 322] |
| < 100 nM | < 100 nM | 100 to 1000 nM | < 100 nM | [2H]C([2H])([2H])Oc1ccc(-n2c(=O)c(-c3ccc4nn(C)cc4c3)nc3ccc(OCC)nc32)cc1 [Example 324] |

From patent US20220251081A1, “HETEROBICYCLIC INHIBITORS OF MAT2A AND METHODS OF USE FOR TREATING CANCER” (priority 2019, published 2022)
